Earlier results on one molecule are cited in US20120034273A1, “EXTRUDATE HAVING SPICULAR ACTIVE SUBSTANCES” (Bayer Animal Health GmbH, priority 2008, published 2012).

For the series the following is noted: stated in words, no test described.

Consider `O=C(C1CCCCC1)N1CC(=O)N2CCc3ccccc3C2C1` (stereo not shown) [praziquantel], for which the solubility in water entry is listed as “poorly soluble in water”.
